From patent US12660819B2, “Herbicidal derivatives” (SYNGENTA CROP PROTECTION AG, priority 2020, dated 2026)

How the values were obtained:
Format in all cases: in vivo
[1] = test system: Ipomoea hederacea (IPOHE); assay: Pre-emergence Test (glasshouse, percentage damage to the plant); settings: 1000 g/ha unless otherwise stated; for percentage damage to the plant, IPOHE (five-point scale): Ipomoea hederacea
Setaria faberi (SETFA) [2] = assay: as above; settings: 1000 g/ha unless otherwise stated; for percentage damage to the plant, SETFA (five-point scale): Setaria faberi
[3] = test system: Amaranthus retoflexus (AMARE); assay: Post-emergence Test (glasshouse, percentage damage to the plant); settings: 1000 g/ha unless otherwise stated, evaluated after 13 days; for AMARE, percentage damage caused to the plant (five-point scale): post-emergence
Summary of the method: (§1)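 Scored 13 days after spraying as percentage plant damage in five bands (5=81–100%, 4=61–80%, 3=41–60%, 2=21–40%, 1=0–20%). Spray at 1000 g/ha unless stated, in acetone/water 50:50 plus 0.5% Tween 20, onto sown glasshouse pots (24/16 °C, 14 h light, 65% humidity).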

[4] = test system: Echinochloa crus-galli (ECHCG); assay: as above; settings: 1000 g/ha unless otherwise stated, evaluated after 13 days; for ECHCG, percentage damage caused to the plant (five-point scale): post-emergence
Summary of the method: as §1

[5] = test system: Amaranthus palmeri (AMAPA); assay: as above; settings: 1000 g/ha unless otherwise stated, evaluated after 13 days; for AMAPA, percentage damage caused to the plant (five-point scale): post-emergence
Summary of the method: as §1

[6] = test system: Ipomoea hederacea (IPOHE); assay: as above; settings: 1000 g/ha unless otherwise stated, evaluated after 13 days; for IPOHE, percentage damage caused to the plant (five-point scale): post-emergence
Summary of the method: (§2)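 Seeds are sown in standard soil under controlled glasshouse conditions. The pots are then sprayed at 1000 g/ha, unless otherwise stated, with compound in acetone/water (50:50) containing 0.5% Tween 20. After 13 days further growth, percentage plant damage is scored from 1 (0-20%) to 5 (81-100%).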

Zea mays (ZEAMX) [7] = assay: as above; settings: 1000 g/ha unless otherwise stated, evaluated after 13 days; for ZEAMX, percentage damage caused to the plant (five-point scale): post-emergence
Summary of the method: as §2

Setaria faberi (SETFA) [8] = assay: as above; settings: 1000 g/ha unless otherwise stated, evaluated after 13 days; for SETFA, percentage damage caused to the plant (five-point scale): post-emergence
Summary of the method: as §2

[9] = test system: Amaranthus retoflexus (AMARE); assay: Pre-emergence Test (glasshouse, percentage damage to the plant); settings: 1000 g/ha unless otherwise stated; for percentage damage to the plant, AMARE (five-point scale): Amaranthus retoflexus
[10] = test system: Echinochloa crus-galli (ECHCG); assay: as above; settings: 1000 g/ha unless otherwise stated; for percentage damage to the plant, ECHCG (five-point scale): Echinochloa crus-galli
[11] = test system: Amaranthus palmeri (AMAPA); assay: as above; settings: 1000 g/ha unless otherwise stated; for percentage damage to the plant, AMAPA (five-point scale): Amaranthus palmeri
Zea mays (ZEAMX) [12] = assay: as above; settings: 1000 g/ha unless otherwise stated; for percentage damage to the plant, ZEAMX (five-point scale): Zea mays

SMILES	percentage damage to the plant, IPOHE (five-point scale) [1]	percentage damage to the plant, SETFA (five-point scale) (Setaria faberi (SETFA) [2])	AMARE, percentage damage caused to the plant (five-point scale) [3]	ECHCG, percentage damage caused to the plant (five-point scale) [4]	AMAPA, percentage damage caused to the plant (five-point scale) [5]	IPOHE, percentage damage caused to the plant (five-point scale) [6]	ZEAMX, percentage damage caused to the plant (five-point scale) (Zea mays (ZEAMX) [7])	SETFA, percentage damage caused to the plant (five-point scale) (Setaria faberi (SETFA) [8])	percentage damage to the plant, AMARE (five-point scale) [9]	percentage damage to the plant, ECHCG (five-point scale) [10]	percentage damage to the plant, AMAPA (five-point scale) [11]	percentage damage to the plant, ZEAMX (five-point scale) (Zea mays (ZEAMX) [12])	further results
CCn1c(C)c(-c2cc(OC(C)C)c(Cl)cc2F)c(=O)c(C(=O)O)c1-c1ccc(F)c(F)c1 [Compound 260, 5-(4-chloro-2-fluoro-5-isopropoxy-phenyl)-2-(3,4-difluorophenyl)-1-ethyl-6-methyl-4-oxo-pyridine-3-carboxylic acid]	3 (3=41-60%)	4 (4=61-80%)	4 (4=61-80%)	4 (4=61-80%)	4 (4=61-80%)	3 (3=41-60%)	3 (3=41-60%)	4 (4=61-80%)	4 (4=61-80%)	5 (5=81-100%)	4 (4=61-80%)	1 (1=0-20%)	–
CCn1c(C)c(-c2cc(OC(C)C)c(Cl)cc2F)c(=O)c(C(=O)O)c1-c1ccc(Cl)c(Cl)c1 [Compound 245, 5-(4-chloro-2-fluoro-5-isopropoxy-phenyl)-2-(3,4-dichlorophenyl)-1-ethyl-6-methyl-4-oxo-pyridine-3-carboxylic acid]	2 (2=21-40%)	5 (5=81-100%)	5 (5=81-100%)	5 (5=81-100%)	5 (5=81-100%)	4 (4=61-80%)	3 (3=41-60%)	5 (5=81-100%)	5 (5=81-100%)	5 (5=81-100%)	5 (5=81-100%)	0	–
Cc1c(-c2ccc(Cl)cc2F)c(=O)c(C(=O)O)c(-c2ccc(Cl)c(Cl)c2)n1C [Compound 253, 5-(4-chloro-2-fluoro-phenyl)-2-(3,4-dichlorophenyl)-1,6-dimethyl-4-oxo-pyridine-3-carboxylic acid]	4 (4=61-80%)	5 (5=81-100%)	5 (5=81-100%)	5 (5=81-100%)	5 (5=81-100%)	3 (3=41-60%)	3 (3=41-60%)	5 (5=81-100%)	5 (5=81-100%)	5 (5=81-100%)	5 (5=81-100%)	1 (1=0-20%)	–
CCn1c(C)c(-c2ccc(Cl)cc2Cl)c(=O)c(C(=O)OC)c1-c1cnc(Cl)c(Cl)c1 [Compound 214, methyl 5-(2,4-dichlorophenyl)-2-(5,6-dichloro-3-pyridyl)-1-ethyl-6-methyl-4-oxo-pyridine-3-carboxylate]	0	0	2 (2=21-40%)	0	2 (2=21-40%)	0	1 (1=0-20%)	1 (1=0-20%)	0	0	0	0	–
CCn1c(C)c(-c2ccc(F)cc2OC)c(=O)c(C(=O)OC)c1-c1ccc(Cl)c(Cl)c1 [Compound 163, methyl 2-(3,4-dichlorophenyl)-1-ethyl-5-(4-fluoro-2-methoxy-phenyl)-6-methyl-4-oxo-pyridine-3-carboxylate]	–	–	–	–	–	–	–	–	–	–	–	–	percentage damage to the plant, IPOHE ([1]; five-point scale): 0; percentage damage to the plant, SETFA (Setaria faberi (SETFA) [2]; five-point scale): 0; Post-emergence Test AMARE, percentage damage to the plant (five-point scale) ([3]; post-emergence spray): 1 (1=0-20%); Post-emergence Test ECHCG, percentage damage to the plant (five-point scale) ([4]; post-emergence spray): 0; Post-emergence Test AMAPA, percentage damage to the plant (five-point scale) ([5]; post-emergence spray): 2 (2=21-40%); Post-emergence Test IPOHE, percentage damage to the plant (five-point scale) ([6]; post-emergence spray): 0; Post-emergence Test ZEAMX, percentage damage to the plant (five-point scale) (Zea mays (ZEAMX) [7]; post-emergence spray): 0; Post-emergence Test SETFA, percentage damage to the plant (five-point scale) (Setaria faberi (SETFA) [8]; post-emergence spray): 0; percentage damage to the plant, AMARE ([9]; five-point scale): 1 (1=0-20%); percentage damage to the plant, ECHCG ([10]; five-point scale): 0; percentage damage to the plant, AMAPA ([11]; five-point scale): 1 (1=0-20%); percentage damage to the plant, ZEAMX (Zea mays (ZEAMX) [12]; five-point scale): 1 (1=0-20%)
CCn1c(C)c(-c2cc(OCC3CC3)c(Cl)cc2F)c(=O)c(C(=O)O)c1-c1ccc(F)c(F)c1 [Compound 262, 5-[4-chloro-5-(cyclopropylmethoxy)-2-fluoro-phenyl]-2-(3,4-difluorophenyl)-1-ethyl-6-methyl-4-oxo-pyridine-3-carboxylic acid]	3 (3=41-60%)	5 (5=81-100%)	5 (5=81-100%)	4 (4=61-80%)	5 (5=81-100%)	2 (2=21-40%)	4 (4=61-80%)	5 (5=81-100%)	5 (5=81-100%)	5 (5=81-100%)	5 (5=81-100%)	2 (2=21-40%)	–
CCn1c(C)c(-c2cc(OCC3CC3)c(Cl)cc2F)c(=O)c(C(=O)O)c1-c1ccc(Cl)c(Cl)c1 [Compound 246, 5-[4-chloro-5-(cyclopropylmethoxy)-2-fluoro-phenyl]-2-(3,4-dichlorophenyl)-1-ethyl-6-methyl-4-oxo-pyridine-3-carboxylic acid]	0	2 (2=21-40%)	5 (5=81-100%)	4 (4=61-80%)	5 (5=81-100%)	2 (2=21-40%)	3 (3=41-60%)	3 (3=41-60%)	5 (5=81-100%)	4 (4=61-80%)	5 (5=81-100%)	0	–
